Earlier results in publication PMC3714282, “Pharmacometabolomics of Response to Sertraline and to Placebo in Major Depressive Disorder – Possible Role for Methoxyindole Pathway” (PLoS ONE, 2013).

Tested on: arylalkylamine N-acetyltransferase (AANAT) mRNA
Set-up: method as in PMID 9951564
Details: animal studies, chronic administration; cited from earlier work

In the case of CNCCC(Oc1ccc(C(F)(F)F)cc1)c1ccccc1 (stereo not shown) [fluoxetine], the “brain arylalkylamine N-acetyltransferase (AANAT) mRNA” value is given as “several-fold increase”.
